For series [1], the system named is KRAS mRNA. The series is described as follows: KRAS mRNA steady-state levels by Taqman Real-time RT-PCR. To be noted: IC50 concentrations.
The subject of series [2] is HCT116 cells. Set-up: method as in PMID 23960016. To be noted: HCT116 vs primary rat hepatocytes; cited from earlier work.
For series [3], the system named is HCT116 cells. As to the kind of experiment: Hoechst staining and Guava Nexin assay, HCT116. It is filed as cell-based, human. To be noted: HCT116, 72 h, IC50 concentrations. How it is done:
To further validate the effect of the IQ3A compounds on the induction of apoptosis in HCT116 cells, apoptosis was ascertained by evaluating changes in nuclear morphology by Hoechst staining, and also by the Nexin assay, following 72 h of incubation with IQ3A compounds at the IC50 concentrations. […] The p53 protein plays a central and pivotal role in human cancers, having a potent tumor suppressive activity via pleiotropic mechanisms. Therefore, the steady-state levels of p53 protein were evaluated by immunoblotting, following 72 h of incubation with IQ3A compounds at the IC50 concentrations, to ascertain their involvement on the mechanism of apoptosis elicited by IQ3A. […] In SW620 cells, no significant increase in p53 steady-state expression was detected, possibly due to the mutant status of p53 (Fig 5A, middle panel). […]
Fig 4 Exposure to IQ3A compounds increases apoptosis in HCT116 cells. […] Results are expressed as the mean percentage (%) of early (LR quadrant) and late (UR quadrant) apoptotic cells.
The Nexin Assay distinguishes viable, early and late apoptotic cells based on the externalization of phosphatidylserine to the cell surface, where Annexin V can readily bind them. […]

In series [4] the test system is SW620 cells. The series is described as follows: MTS short-term cytotoxicity assay (72 h), SW620. To be noted: 72 h, MTS, standard errors ≤ 0.1. The series is classed as cell-based.

In the case of `CCN(CC)CCOC(=O)c1ccc2c(c1)c1nc3ccccc3c(OCCN(CC)CC)c1n2CCN(CC)CC` [1a], the “down-regulation of KRAS transcription (mRNA)” value in series [1] (HCT116, 72 h) is recorded as approximately 40%; in series [1] (SW620, 72 h), “not significantly so”. For the same compound, the “Selective growth inhibition of KRAS mutant HCT116 cells compared to primary rat hepatocytes” value in series [2] is on record as 100 fold. Further, the induction of apoptosis entry in series [3] was “marked increase in apoptosis compared to vehicle”. The “SW620 IC65” value in series [4] came to 4120 nM. In addition, in series [4] (Homo sapiens, SW-620, read-out: SW620 IC50), the IC50 came out at 2690 nM.

(Values after publication PMC4449006, “Targeting KRAS Oncogene in Colon Cancer Cells with 7-Carboxylate Indolo[3,2-b]quinoline Tri-Alkylamine Derivatives” (PLoS ONE, 2015).)
